This assay concerns P388 leukemia ip, CD2F1 mice, survival T/C. The assay can be described thus: NCI In Vivo Anticancer Drug Screen. Data for tumor model P388 Leukemia (intraperitoneal) in CD2F1 (CDF1) mice. The conditions noted are these: endpoint: median survival time, higher = longer survival. In short, it runs like this: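 Mice carrying the transplanted tumor received test compound or vehicle. Survival was recorded in each group, and the value is the treated-group measurement divided by that of the vehicle-treated control group.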

The mark [1] stands for this setting: dose: 100.0 mg/kg/injection, schedule: Q01DX009 (ip), vehicle: saline with Tween-80.
The mark [2] stands for this setting: dose: 100.0 mg/kg/injection, schedule: Q04DX003 (ip), vehicle: saline with Tween-80.
Where [3] appears, read: dose: 200.0 mg/kg/injection, schedule: Q01DX009 (ip), vehicle: saline with Tween-80.
The mark [4] stands for this setting: dose: 200.0 mg/kg/injection, schedule: Q04DX003 (ip), vehicle: saline with Tween-80.
The mark [5] stands for this setting: dose: 400.0 mg/kg/injection, schedule: Q04DX003 (ip), vehicle: saline with Tween-80.
The mark [6] stands for this setting: dose: 50.0 mg/kg/injection, schedule: Q01DX009 (ip), vehicle: Klucel (hydroxypropylcellulose) (HPC).
[7] abbreviates: dose: 100.0 mg/kg/injection, schedule: Q01DX009 (ip), vehicle: Klucel (hydroxypropylcellulose) (HPC).
[8] abbreviates: dose: 200.0 mg/kg/injection, schedule: Q01DX009 (ip), vehicle: Klucel (hydroxypropylcellulose) (HPC).
[9] abbreviates: dose: 50.0 mg/kg/injection, schedule: Q01DX005 (ip), vehicle: saline with Tween-80.
[10] abbreviates: dose: 100.0 mg/kg/injection, schedule: Q01DX005 (ip), vehicle: saline with Tween-80.
Where [11] appears, read: dose: 200.0 mg/kg/injection, schedule: Q01DX005 (ip), vehicle: saline with Tween-80.
Setting [12] is: dose: 50.0 mg/kg/injection, schedule: Q01DX005 (ip), vehicle: saline.
Where [13] appears, read: dose: 100.0 mg/kg/injection, schedule: Q01DX005 (ip), vehicle: saline.
[14] abbreviates: dose: 50.0 mg/kg/injection, schedule: Q01DX009 (ip), vehicle: saline with Tween-80.

Structures are written as SMILES. Where “and” joins values, the source holds several entries; their conditions need not be identical. Equal entries are not always repeated. Inconclusive results and toxic doses are left out.

For the compound `CC(=O)CCC(=O)OC(C)(C)CN`, the T/C is 100 % of control under setting [1]; 100 % of control under setting [2]; 100 % of control under setting [3]; 100 % of control under setting [4]; 104 % of control (dose: 400.0 mg/kg/injection, schedule: Q01DX009 (ip), vehicle: saline with Tween-80); 104 % of control under setting [5].

With `CC/C(=C1/C=C(O)C(=O)C=C1OC)c1ccc(OC)cc1`, the T/C is 100 % of control (dose: 2.5 mg/kg/injection, schedule: Q01DX009 (ip), vehicle: saline + alcohol); 101 % of control (dose: 5.0 mg/kg/injection, schedule: Q01DX009 (ip), vehicle: saline + alcohol); 103 % of control (dose: 10.0 mg/kg/injection, schedule: Q01DX009 (ip), vehicle: saline + alcohol).

On to `O=c1cc(Cc2ccccc2)[nH]c(=S)[nH]1`, for which the T/C under setting [2] is 109 % of control, the T/C under setting [4] is 104 % of control and the T/C under setting [5] is 100 % of control.

For `CC(=O)OCC1OC(n2cnc(C(N)=S)c2N)C(OC(C)=O)C1OC(C)=O` (stereo unspecified), the T/C runs as follows: (dose: 60.0 mg/kg/injection, schedule: Q01DX005 (ip), vehicle: saline with Tween-80) 100 % of control; (dose: 120.0 mg/kg/injection, schedule: Q01DX005 (ip), vehicle: saline with Tween-80) 103 % of control; (dose: 240.0 mg/kg/injection, schedule: Q01DX005 (ip), vehicle: saline with Tween-80) 110 % of control.

As for `COc1ccc(NC(=S)Nc2ccccn2)cc1`, the T/C was 108 % of control under setting [2], 95 % of control under setting [4] and 112 % of control under setting [5].

As to `O=C1CSC(=Nc2ccccc2)N1c1ccc(-n2c(-c3ccc(N=Cc4ccc(Cl)cc4)cc3)nc3ccccc3c2=O)cc1`, the T/C (dose: 60.0 mg/kg/injection, schedule: Q01DX005 (ip), vehicle: Klucel (hydroxypropylcellulose) (HPC)) was 92 % of control.

For `Cn1c(=O)c2cn[nH]c2n(C)c1=O`, the T/C reads like this: under setting [6], 104 % of control; under setting [7], 100 % of control; under setting [8], 96 % of control.

For the compound `O=[N+]([O-])c1c(Nc2ccccc2)n(-c2ccccc2)c2ccc(O)cc12`, the T/C was 92 % of control (dose: 3.12 mg/kg/injection, schedule: Q01DX005 (ip), vehicle: saline with Tween-80); 102 % of control (dose: 6.25 mg/kg/injection, schedule: Q01DX005 (ip), vehicle: saline with Tween-80); 90 % of control and 92 % of control (dose: 12.5 mg/kg/injection, schedule: Q01DX005 (ip), vehicle: saline with Tween-80); 86 % of control under setting [9].

For `CN/N=C\c1cc2ccccc2c2ccccc12`, the T/C under setting [9] is 96 % of control, the T/C under setting [10] is 91 % of control and the T/C under setting [11] is 88 % of control.

Take `CCC/C=C/C=C/C(=O)OC1/C(=C/C(=O)OC)CC2CC(C(C)O)OC(=O)CC(O)CC3CC(OC(C)=O)C(C)(C)C(O)(CC4C/C(=C/C(=O)OC)CC(/C=C/C(C)(C)C1(O)O2)O4)O3` (stereo unspecified): the T/C (dose: 0.01 mg/kg/injection, schedule: Q01DX009 (ip), vehicle: saline + alcohol) was 152 % of control; the T/C (dose: 0.03 mg/kg/injection, schedule: Q01DX009 (ip), vehicle: saline + alcohol) was 186 % of control; the T/C (dose: 0.07 mg/kg/injection, schedule: Q01DX009 (ip), vehicle: saline + alcohol) was 163 % of control and 196 % of control; the T/C (dose: 0.15 mg/kg/injection, schedule: Q01DX009 (ip), vehicle: saline + alcohol) was 179 % of control; the T/C (dose: 18.75 micrograms/kg/injection, schedule: Q01DX009 (ip), vehicle: saline + alcohol) was 175 % of control; the T/C (dose: 37.5 micrograms/kg/injection, schedule: Q01DX009 (ip), vehicle: saline + alcohol) was 177 % of control. Further, for the setting “dose: 75.0 micrograms/kg/injection, schedule: Q01DX009 (ip), vehicle: saline + alcohol”, the T/C is 177 % of control.

For `COc1ccc2nc3cc(Cl)ccc3c(NCCCNCCCCNCCCNc3c4ccc(Cl)cc4nc4ccc(OC)nc34)c2n1`, the T/C is 100 % of control (dose: 0.93 mg/kg/injection, schedule: Q01DX005 (ip), vehicle: saline with Tween-80); 106 % of control (dose: 1.87 mg/kg/injection, schedule: Q01DX005 (ip), vehicle: saline with Tween-80); 121 % of control (dose: 3.75 mg/kg/injection, schedule: Q01DX005 (ip), vehicle: saline with Tween-80).

For the compound `C=CC1C(=O)N(C)[C@H](C(C)(C)C)N1C(=O)c1ccccc1` (stereo partly specified), the T/C under setting [12] was 100 % of control; the T/C under setting [13] was 93 % of control; the T/C (dose: 200.0 mg/kg/injection, schedule: Q01DX005 (ip), vehicle: saline) is 113 % of control.

Regarding `CCN(CC)CC(C)(C)C(=O)/C=C/c1ccc(/C=C/C(=O)C(C)(C)CN(CC)CC)cc1`, under “dose: 7.5 mg/kg/injection, schedule: Q01DX005 (ip), vehicle: saline”, the T/C is 115 % of control and 124 % of control.

As to `CCN(CC)CC(O)c1c(-c2ccccc2)c(-c2ccccc2)c2n1CCC2` (stereo unspecified), the T/C is, setting by setting: under setting [6], 103 % of control; under setting [7], 106 % of control; under setting [8], 109 % of control.

On to `CN(CC(=O)NC(Cc1c[nH]c2ccccc12)C(=O)O)C(=O)OCc1ccccc1` (stereo unspecified), for which the T/C is 96 % of control under setting [9], 102 % of control under setting [10] and 98 % of control under setting [11].

Turning to `CC1=C(C(=O)Nc2ccc(Cl)c(C(=O)OC(C)C)c2)SCCO1`, the T/C reads like this: (dose: 100.0 mg/kg/injection, schedule: Q01DX001 (ip), vehicle: saline with Tween-80) 96 % of control; (dose: 200.0 mg/kg/injection, schedule: Q01DX001 (ip), vehicle: saline with Tween-80) 92 % of control; (dose: 400.0 mg/kg/injection, schedule: Q01DX001 (ip), vehicle: saline with Tween-80) 87 % of control.

For the compound `O=C1NC(O)c2cccc(F)c2O1` (stereo unspecified), the T/C under setting [9] was 100 % of control and the T/C under setting [10] is 102 % of control.

Regarding `O=c1cc(-c2ccc(OCc3ccccc3)cc2)oc2ccccc12`, the T/C under setting [9] is 92 % of control, the T/C under setting [10] was 87 % of control and the T/C under setting [11] is 86 % of control.

For `CSc1nc(N)c(C(=O)c2sc(SC)nc2N)s1`, the T/C (dose: 12.5 mg/kg/injection, schedule: Q01DX005 (ip), vehicle: Klucel (hydroxypropylcellulose) (HPC)) is 100 % of control; the T/C (dose: 25.0 mg/kg/injection, schedule: Q01DX005 (ip), vehicle: Klucel (hydroxypropylcellulose) (HPC)) was 92 % of control; the T/C (dose: 50.0 mg/kg/injection, schedule: Q01DX005 (ip), vehicle: Klucel (hydroxypropylcellulose) (HPC)) was 90 % of control and 97 % of control.

For the compound `CC12CCCN(CCCl)C1CCC1C2CCC2(C)C1CCCN2CCCl` (stereo unspecified), the T/C (dose: 0.78 mg/kg/injection, schedule: Q01DX001 (ip), vehicle: saline with Tween-80) is 108 % of control; the T/C (dose: 1.56 mg/kg/injection, schedule: Q01DX001 (ip), vehicle: saline with Tween-80) is 112 % of control and 118 % of control; the T/C (dose: 1.56 mg/kg/injection, schedule: Q01DX001 (ip), vehicle: saline) was 102 % of control; the T/C (dose: 3.13 mg/kg/injection, schedule: Q01DX001 (ip), vehicle: saline with Tween-80) was 117 % of control.

For the compound `O=C(/C=C/c1c(Cl)cccc1Cl)c1ccc(Cl)cc1`, the T/C is, setting by setting: under setting [2], 100 % of control; under setting [4], 100 % of control; under setting [5], 109 % of control.

On to `CCN(CC)CCCC(C)Nc1c(C)cnc2cc(Cl)c(C)cc12` (stereo unspecified), for which the T/C runs as follows: under setting [12], 103 % of control; under setting [13], 100 % of control.

Consider `O=C(CNC(=O)OCc1ccccc1)Oc1ccccc1[N+](=O)[O-]`, for which the T/C was 94 % of control under setting [14], 100 % of control under setting [1] and 111 % of control under setting [3].

As to `Oc1c(C(c2ccccc2)N2CCCCC2)ccc2ccccc12` (stereo unspecified), the T/C is 110 % of control under setting [14], 105 % of control under setting [1] and 90 % of control under setting [3].

`c1ccc(O[Si](Oc2ccccc2)(Oc2ccccc2)Oc2ccccc2)cc1`: the T/C reads like this: (dose: 25.0 mg/kg/injection, schedule: Q01DX009 (ip), vehicle: other) 86 % of control; (dose: 50.0 mg/kg/injection, schedule: Q01DX009 (ip), vehicle: other) 96 % of control; (dose: 100.0 mg/kg/injection, schedule: Q01DX009 (ip), vehicle: other) 99 % of control.

Take `O=S1(=O)C2C=CC1CCCC2`: the T/C reads like this: (dose: 12.5 mg/kg/injection, schedule: Q01DX009 (ip), vehicle: saline) 95 % of control; (dose: 25.0 mg/kg/injection, schedule: Q01DX009 (ip), vehicle: saline) 90 % of control; (dose: 50.0 mg/kg/injection, schedule: Q01DX009 (ip), vehicle: saline) 92 % of control and 96 % of control.

(Values after PubChem BioAssay AID330 (DTP/NCI, 2004).)
